Measured values published in PMC7108740, “Exploring the molecular structures that confer ligand selectivity for galanin type II and III receptors” (PLoS ONE, 2020).
Residue numbers refer to the chain shown, from its start. Ends that are not written are not given here.

What was measured:
[1] = target: T1, GALR3 double mutant L^100F, Y^107H (Homo sapiens, UniProt O60755, L100F/Y107H); assay: SRE-luc luciferase assay, GALR3 L100F,Y107H; format: cell-based; conditions: GALR3 L^100F, SRE-luc in HEK293 Gqi cells, ligand 6 h, mean ± S.E., SEM
T1 construct: expressed in transfected cells; host or cells: HEK293 cells stably expressing Gqi
T1 sequence (O60755 1-368 L100F/Y107H): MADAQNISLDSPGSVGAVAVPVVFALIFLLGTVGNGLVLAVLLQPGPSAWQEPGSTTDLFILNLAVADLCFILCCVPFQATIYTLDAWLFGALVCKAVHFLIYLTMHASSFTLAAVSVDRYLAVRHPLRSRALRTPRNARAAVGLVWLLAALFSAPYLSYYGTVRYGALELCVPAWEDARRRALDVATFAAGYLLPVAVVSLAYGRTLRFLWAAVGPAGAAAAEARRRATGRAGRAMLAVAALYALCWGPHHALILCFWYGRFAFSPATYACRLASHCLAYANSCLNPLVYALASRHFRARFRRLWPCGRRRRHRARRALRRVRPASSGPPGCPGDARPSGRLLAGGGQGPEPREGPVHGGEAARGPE
Excerpt: For domain swapping between GALR2 and GALR3, individual cDNA fragments of interest were amplified by polymerase chain reaction (PCR) with Pfu polymerase (ELPIS Biotech, Daejeon, Korea) and two specific primers, one corresponding to the 5' or 3' end of the GALR2 or GALR3 cDNA and the other to the region of overlap between the two receptors. The two resulting fragments, one from GALR2 and the other from GALR3, were subjected to a second round of PCR to generate the chimeric cDNAs. To construct single, double-, triple-, pentuple-, hextuple-, and septuple-mutant receptors, amino acids of GALR3 were substituted for the amino acids at the corresponding positions in GALR2 using PCR-based site-directed mutagenesis. All of the chimeric constructs were cloned into the pcDNA3 expression vector at HindⅢ and XbaⅠ sites. The DNA sequences of the chimeras were verified by automatic sequencing. HEK293 cells stably expressing the Gqi construct, which allows induction of Gq-dependent signaling pathways upon activation of a Gi-coupled receptor [14, 30], were maintained in Dulbecco's Modified Eagle's Medium (DMEM) in the presence of 10% fetal bovine serum and 1% penicillin and streptomycin. For all transfections, 200 ng DNA (100 ng receptor and 100 ng SRE-luc) mixed with lipofectamine 2000 was applied to 60–80% confluent cells on a multi-well plate according to the manufacturer's instructions (Invitrogen, Carlsbad, CA). For luciferase assays, HEK293 Gqi cells were seeded on 48-well plates at a density of 2.5 × 10^4 cells/well one day before transfection. […] The luciferase activity in 50 μl cell extract was determined using a luciferase assay system according to the standard protocol for the Synergy 2 Multi-Mode Microplate Reader (BioTek, Winooski, VT, USA). […] The concentrations of agonists that induced half-maximal stimulation (EC50) were calculated using the GraphPad PRISM5 software (GraphPad software, Inc., San Diego, CA). […]

GALR3 = target: T2, GALR3 (Homo sapiens, UniProt O60755); assay: SRE-luc luciferase assay, WT GALR3; format: cell-based; parameters: host or cells: HEK293 cells stably expressing Gqi; conditions: SRE-luc in HEK293 Gqi cells, ligand 6 h, mean ± SE, at least three independent experiments, SEM
T2 sequence (O60755 1-368): T1 sequence (O60755 1-368 L100F/Y107H) with F100L, H107Y
Excerpt: The pcDNA3.1 vector was purchased from Invitrogen (San Diego, CA, USA). The serum response element (SRE)-luciferase (SRE-luc) vector containing a single copy of the SRE (CCATATTAGG) conjugated with luciferase was purchased from Stratagene (La Jolla, CA, USA). The cDNAs for human GALR1, GALR2, and GALR3 were obtained from BRN SCIENCE, Inc. The cDNAs were inserted into the EcoRⅠ and XhoⅠ sites of pcDNA3.1.
HEK293 cells stably expressing the Gqi construct, which allows induction of Gq-dependent signaling pathways upon activation of a Gi-coupled receptor [14, 30], were maintained in Dulbecco's Modified Eagle's Medium (DMEM) in the presence of 10% fetal bovine serum and 1% penicillin and streptomycin. For all transfections, 200 ng DNA (100 ng receptor and 100 ng SRE-luc) mixed with lipofectamine 2000 was applied to 60–80% confluent cells on a multi-well plate according to the manufacturer's instructions (Invitrogen, Carlsbad, CA).
For luciferase assays, HEK293 Gqi cells were seeded on 48-well plates at a density of 2.5 × 10^4 cells/well one day before transfection. A mixture including 100 ng SRE-luc reporter construct, 100 ng expression plasmid, and lipofectamine 2000 reagent in diluted Opti-MEM (Gibco) was incubated at room temperature for 20 min and then added into each well according to the manufacturer's instructions (Invitrogen, CA, USA). Before exposure to the ligands, the cells were maintained in serum-free DMEM for 16–18 h. Approximately 48 h after transfection, the cells were treated with ligand for 6 h. The cells were then lysed by the addition of 100 μl lysis buffer. The luciferase activity in 50 μl cell extract was determined using a luciferase assay system according to the standard protocol for the Synergy 2 Multi-Mode Microplate Reader (BioTek, Winooski, VT, USA).
Data analysis was performed by non-linear regression with a sigmoidal dose-response curve. The concentrations of agonists that induced half-maximal stimulation (EC50) were calculated using the GraphPad PRISM5 software (GraphPad software, Inc., San Diego, CA). All data are presented as the mean ± standard error (SE) of at least three independent experiments.

Compound | EC50 [1] [nM] | EC50 (GALR3) [nM]
NWTPNAMLYLKGAQ-NH2 [N^5-SPX] | 155 ± 40.1 | 398 ± 96.1
CSCC[C@H](NC(=O)[C@H](C)NC(=O)[C@H](CCC(N)=O)NC(=O)[C@@H]1CCCN1C(=O)[C@@H](NC(=O)[C@H](Cc1c[nH]c2ccccc12)NC(=O)[C@@H](N)CC(N)=O)[C@@H](C)O)C(=O)N[C@@H](CC(C)C)C(=O)N[C@@H](Cc1ccc(O)cc1)C(=O)N[C@@H](CC(C)C)C(=O)N[C@@H](CCCCN)C(=O)NCC(=O)N[C@@H](C)C(=O)N[C@@H](CCC(N)=O)C(N)=O [SPX, reference compound] | 38.9 ± 7.28 | 115
NWTPQAALYLKGAQ-NH2 [A^7-SPX] | 69.2 ± 20.2 | 
NWTPQAMLYLKGPQ-NH2 [P^13-SPX] |  | 333 ± 55.7
